Source: patent US8629173B2, “Solid forms comprising (+)-2-[1-(3-ethoxy-4-methoxyphenyl)-2-methylsulfonylethyl]-4-acetylaminoisoindoline-1,3-dione, compositions thereof, and uses thereof” (Celgene Corporation, priority 2002, dated 2014)

Tested on: conscious ferret
Test: Emesis and behavioral changes in conscious ferret
Assay type: in vivo
Procedure: The conscious ferret model has been used to investigate anti-inflammatory, emetic and behavioral effects of PDE4 inhibitors when administered by the oral (p.o.) route. From these experiments, a therapeutic index (TI) for each PDE4 inhibitor may be determined. The TI has been calculated by dividing the threshold dose for causing emetic episodes and behavioral changes by the anti-inflammatory dose (dose that causes 50% inhibition of the LPS-induced neutrophilia).
PDE4 inhibitors were administered orally (p.o.), at doses initially of […], but subsequently up to 30 mg/kg in order to establish whether the TI was 10 or higher, and/or at lower doses to establish the minimum dose to cause 50% inhibition of neutrophilia. Ferrets were fasted overnight but allowed free access to water. The animals were orally dosed with vehicle or PDE4 inhibitor using a 15 cm dosing needle that was passed down the back of the throat into the oesophagus. After dosing, the animals were returned to holding cages fitted with Perspex doors to allow observation, and given free access to water. After dosing, the animals were constantly observed and any emesis or behavioral changes were recorded. The animals were allowed access to food 60 to 90 minutes after p.o. dosing.
Thirty minutes after p.o. dosing with compound or vehicle control, the ferrets were placed into sealed Perspex containers and exposed to an aerosol of LPS (100 μg/ml) for 10 minutes. Aerosols of LPS were generated by a nebulizer (DeVilbiss, USA) and this was directed into the Perspex exposure chamber. Following a 10 minute exposure period, the animals were returned to the holding cages and allowed free access to water, and at a later stage, food. Observation continued for a period of at least 2.5 hours post p.o. dosing and emetic episodes and behavioral changes were recorded.
2. Emetic episodes—the number of vomits and retches were counted.
3. Behavioral changes—the following behavioral effects were noted: salivation, panting, mouth clawing, flattened posture, ataxia, arched back and backward walking Any behavioral changes were semi-quantified by applying a severity rating (mild, moderate or severe).
4. The TI was calculated as the highest dose found to not cause emetic episodes divided by the lowest dose found to inhibit pulmonary neutrophilia by 50% or more.
Numbers in parentheses refer to the number of animals that responded. The numbers of animals in each group range from 4 to 22.
From these experiments, a therapeutic index (TI) was determined for each compound by dividing the threshold dose for inducing emetic episodes by the ED50 value for inhibiting the pulmonary neutrophilia.

## CCOc1cc(C(CS(C)(=O)=O)N2C(=O)c3cccc(NC(C)=O)c3C2=O)ccc1OC (single isomer, unassigned; (+)) [Compound A, (+)-2-[1-(3-ethoxy-4-methoxyphenyl)-2-methylsulfonylethyl]-4-acetylaminoisoindoline-1,3-dione]
Conscious ferret, p.o.
  Threshold emetic dose: 10 mg/kg
ferret, 0.1 mg/kg p.o.
  Ataxia, severity: None
  Backward walking, number of animals that responded: (3/5)
  Backward walking, severity: Mild
  Flattened posture, number of animals that responded: (2/5)
  Flattened posture, severity: Mild
  Lip licking, number of animals that responded: (4/5)
  Lip licking, severity: Mild
  Mouth clawing, severity: None
  Panting, severity: None
  Retches, severity: None
  Salivation, severity: None
  Vomits, severity: None
ferret, 0.3 mg/kg p.o.
  Ataxia, severity: None
  Backward walking, number of animals that responded: (4/6)
  Backward walking, severity: Mild
  Flattened posture, number of animals that responded: (2/6)
  Flattened posture, severity: Mild
  Lip licking, number of animals that responded: (3/6)
  Lip licking, severity: Mild
  Mouth clawing, severity: None
  Panting, severity: None
  Retches, severity: None
  Salivation, severity: None
  Vomits, severity: None
ferret, 1 mg/kg
  emetic episodes at anti-inflammatory dose: no emetic episodes
ferret, 1.0 mg/kg p.o.
  Ataxia, severity: None
  Backward walking, number of animals that responded: (4/6)
  Backward walking, severity: Mild
  Flattened posture, number of animals that responded: (2/6)
  Flattened posture, severity: Mild
  Lip licking, number of animals that responded: (6/6)
  Lip licking, severity: Mild
  Mouth clawing, severity: None
  Panting, severity: None
  Retches, severity: None
  Salivation, severity: None
  Vomits, severity: None
ferret, 3.0 mg/kg p.o.
  Ataxia, severity: None
  Backward walking, number of animals that responded: (5/8)
  Backward walking, severity: Moderate
  Flattened posture, number of animals that responded: (7/8)
  Flattened posture, severity: Marked
  Lip licking, number of animals that responded: (2/8)
  Lip licking, severity: Mild
  Mouth clawing, number of animals that responded: (1/8)
  Mouth clawing, severity: Mild
  Panting, severity: None
  Retches, severity: None
  Salivation, severity: None
  Vomits, severity: None
ferret, 10 mg/kg p.o.
  Ataxia, severity: None
  Backward walking, number of animals that responded: (6/6)
  Backward walking, severity: Marked
  Flattened posture, number of animals that responded: (6/6)
  Flattened posture, severity: Marked
  Lip licking, number of animals that responded: (5/6)
  Lip licking, severity: Moderate
  Mouth clawing, number of animals that responded: (1/6)
  Mouth clawing, severity: Mild
  Panting, severity: None
  Retches, severity: Mild
  Salivation, number of animals that responded: 1/6
  Salivation, severity: Mild
  Vomits, severity: None
  emesis: no frank emesis
  salivation and behavioral changes, score: mild or moderate
ferret, 10 mg/kg p.o., 10 mg/kg
  Retches, number of animals that responded: 2/6 and (2/6)
ferret, 30 mg/kg p.o.
  Ataxia, number of animals that responded: (3/4)
  Ataxia, severity: Mild
  Backward walking, number of animals that responded: (2/4)
  Backward walking, severity: Mild
  Flattened posture, number of animals that responded: (4/4)
  Flattened posture, severity: Marked
  Lip licking, number of animals that responded: (4/4)
  Lip licking, severity: Moderate
  Mouth clawing, number of animals that responded: (4/4)
  Mouth clawing, severity: Marked
  Panting, number of animals that responded: (1/4)
  Panting, severity: Mild
  Retches, number of animals that responded: (3/4)
  Retches, severity: Marked
  Salivation, number of animals that responded: (3/4)
  Salivation, severity: Moderate
  Vomits, number of animals that responded: (3/4)
  Vomits, severity: Moderate
  behavioral changes: pronounced
  emesis, animals affected: 3/4
  emesis, severity: moderate to marked
ferret, 0.1-3 mg/kg p.o.
  behavioral changes (flattened posture, lip licking, backward walking), classification: mild
  emetic episodes (retching and vomiting): no emetic episodes
Threshold emetic dose divided by ED50 for pulmonary neutrophilia, ferret
  Therapeutic index: 12
